Assay results taken from paper PMC7690861, “Topical Administration of Cannabidiol: Influence of Vehicle-Related Aspects on Skin Permeation Process” (Pharmaceuticals, 2020).
≈ marks a conversion by molar mass, not a printed value. Like-named read-outs stand apart in the source and are kept apart here. Marks after values point to notes of the source that are not given here.

How the values were obtained:
[1] = Preliminary chemical stability of CBD in tested formulations (total impurities); format: physicochemical; conditions: over the preparation process and the permeation experiments; preliminary data
From the text: Evidence in the literature highlighted that CBD was quite unstable in a solution for a long period. Even if an in-depth investigation of the chemical stability of CBD loaded in the tested formulation has not been performed yet, preliminary data highlighted that CBD was stable over both the preparation process and the permeation experiments (total impurities < 2% of CBD assay). […] Further studies are needed to determine the long-term stability of the tested formulations.
HPLC analysis was run using an HP 1100 ChemStation system (Agilent Technologies Inc, USA), acetonitrile/phosphate buffer pH 3.0 (75/25, v/v) was used as mobile phase at a flow rate of 1.5 mL/min, injection volume was set at 20 μL. The UV detector was set at a wavelength of 215 nm. A reverse-phase C8 column (InertClone™, 5 μm, 150 × 4.6 mm; Phenomenex Inc, Torrance, USA) was used. The retention time of the CBD was 4.0 min. Two calibration curves were made in the overall range of 0.02–100 μg/mL.

[2] = Fedors method; ref Minghetti et al. [26]; cited from earlier work
[3] = parameters: method as in Burke [29]; conditions: experimental; ref Burke [29]; cited from earlier work

Procedure for physchem: The equilibrium solubility of CBD in each of the above-mentioned solvent systems was determined by the shake-flask method. An excess quantity of the cannabinoid compound was added to 1 mL of each test solution in a glass vial. […] In the case of aqueous solutions, the supernatant fluid was then filtered (0.45 μm PP syringe filter) and properly diluted in methanol before being analyzed by HPLC. In the case of oily solutions, the supernatant fluid was filtered (0.45 μm PVDF syringe filter); then, 60 μL of the filtered solution was withdrawn and added to 5 mL of methanol; the mixture was vortexed for 1 min and allowed to stand for 1 min three times, then it was centrifuged (4000 rpm, 2 min); the supernatant fluid was sampled and properly diluted in methanol before being analyzed by HPLC. Each solubility value was calculated as the mean of three independent shake-flask experiments, considering any dilution factors and an extraction efficiency factor in case of oily solutions.

C=C(C)[C@@H]1CCC(C)=C[C@H]1c1c(O)cc(CCCCC)cc1O [CBD, Cannabidiol]
solubility at 24 h (physchem): 2240 ± 80 µg/mL (≈ 7.12 mM)
Total impurities [1]: < 2 % of CBD assay

O-acylglucosylceramide
δ (solubility parameter) [2]: 10.03 ^a cal/cm^3

CC(O)CO (stereo not shown) [Propylene glycol]
δ (solubility parameter) [3]: 14.80 ^d cal/cm^3
